The text below walks through data of patent US20220339144A1, “PYRIDINYL INDOLE COMPOUNDS AND METHODS OF USE THEREOF” (Chinook Therapeutics Canada, Inc., priority 2021, published 2022).

Where only a bound is given, the exact number is not on record here.

Experiment [1] addresses T1, AMPKα1β1γ1 (Homo sapiens, UniProt Q13131+Q9Y478).
T1 construct: purchased Carna Biosciences 02-113
Briefly: AMPKα1β1γ1 biochemical assay (LabChip EZ Reader mobility shift). Conditions: EC50 of Table 1; activation, normalized to DMSO vehicle control; read-out: Human AMPK AMPKα1β1γ1 EC50. Here is the method:
(§1) Compounds disclosed herein were evaluated for their ability to activate AMPKα1β1γ1 by measuring phosphorylation of a commercially available fluorescent AMPK substrate using the LabChip® EZ Reader microfluidic system that is based on a mobility shift principle in which unphosphorylated fluorescent substrates may be separated and distinguished from phosphorylated fluorescent substrates due to the difference in negative charge. Briefly, compounds were serial diluted 3-fold in 100% DMSO for an 11-point dose-response curve. A 20 nL aliquot of diluted compound was transferred into a 384-well plate using a liquid handler (Labcyte Inc., Echo 550). A pre-prepared solution (10 mM MgCl2, 0.01% Brij-35, 2 mM DTT, 0.05% BSA, 1 mM EGTA, and 50 mM HEPES pH 7.5) was combined with 0.83 nM AMPKα1β1γ1 (Carna Biosciences, 02-113). The enzyme solution (15 μL) was aliquoted into each well and the plate was incubated at 24° C. for 30 min. A second stock solution (10 mM MgCl2, 0.01% Brij-35, 2 mM DTT, 0.05% BSA, 1 mM EGTA, 800 μM ATP, and 50 mM HEPES pH 7.5) was combined with 6 μM fluorescent peptide substrate for AMPKal (Perkin Elmer, 760351). The kinase reaction was initiated by adding 5 μL of the second solution containing substrate and ATP to each well. The plate was incubated at 24° C. for 90 minutes and 75 μL of 0.5 M EDTA was added to terminate the reaction. The plates were analyzed using a LabChip® EZ Reader (Perkin Elmer, 122919) and the effective concentration to achieve 50% of the maximal activity (EC50) was calculated after normalizing to the DMSO vehicle control.

Experiment [2] has as its target T2, AMPKα1β2γ1 (Homo sapiens, UniProt O43741+Q13131).
T2 construct: purchased Carna Biosciences (printed only as 'Biosciences') 02-147
Briefly: AMPKα1β2γ1 biochemical assay (LabChip EZ Reader mobility shift). Conditions: second EC50 column of Table 1 (head repeats α1β1γ1; text says α1β2γ1 isoform); read-out: Human AMPK AMPKα1β1γ1 EC50. How it is done:
as §1
The same procedure above was also used to measure activation of the AMPKα1β2γ1 isoform, replacing AMPKα1β1γ1 with AMPKα1β2γ1 Biosciences 02-147).

T2 sequence (Q13131 whole entry): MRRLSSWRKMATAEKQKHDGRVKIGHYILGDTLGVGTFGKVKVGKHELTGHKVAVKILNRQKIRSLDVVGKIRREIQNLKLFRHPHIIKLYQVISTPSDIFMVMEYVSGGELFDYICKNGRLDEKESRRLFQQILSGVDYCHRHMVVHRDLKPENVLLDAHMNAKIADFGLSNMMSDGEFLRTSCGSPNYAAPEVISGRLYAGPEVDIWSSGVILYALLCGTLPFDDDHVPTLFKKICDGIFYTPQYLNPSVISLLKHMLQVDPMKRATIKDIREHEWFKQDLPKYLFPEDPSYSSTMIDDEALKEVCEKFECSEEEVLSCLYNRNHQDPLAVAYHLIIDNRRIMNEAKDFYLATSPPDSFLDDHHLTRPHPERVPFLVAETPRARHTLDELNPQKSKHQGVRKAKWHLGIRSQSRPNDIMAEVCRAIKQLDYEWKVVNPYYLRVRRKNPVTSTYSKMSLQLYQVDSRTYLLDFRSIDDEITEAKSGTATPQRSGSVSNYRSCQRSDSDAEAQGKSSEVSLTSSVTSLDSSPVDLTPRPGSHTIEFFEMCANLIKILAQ
T2 sequence (O43741 whole entry): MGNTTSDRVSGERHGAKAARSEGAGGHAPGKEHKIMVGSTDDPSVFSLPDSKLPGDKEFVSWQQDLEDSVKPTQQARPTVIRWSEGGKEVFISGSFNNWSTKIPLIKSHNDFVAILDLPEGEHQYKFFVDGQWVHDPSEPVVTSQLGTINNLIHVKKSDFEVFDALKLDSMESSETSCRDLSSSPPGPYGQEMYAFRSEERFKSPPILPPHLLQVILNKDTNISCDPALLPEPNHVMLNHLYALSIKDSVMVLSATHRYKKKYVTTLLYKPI
T2 sequence (P54619 whole entry partner): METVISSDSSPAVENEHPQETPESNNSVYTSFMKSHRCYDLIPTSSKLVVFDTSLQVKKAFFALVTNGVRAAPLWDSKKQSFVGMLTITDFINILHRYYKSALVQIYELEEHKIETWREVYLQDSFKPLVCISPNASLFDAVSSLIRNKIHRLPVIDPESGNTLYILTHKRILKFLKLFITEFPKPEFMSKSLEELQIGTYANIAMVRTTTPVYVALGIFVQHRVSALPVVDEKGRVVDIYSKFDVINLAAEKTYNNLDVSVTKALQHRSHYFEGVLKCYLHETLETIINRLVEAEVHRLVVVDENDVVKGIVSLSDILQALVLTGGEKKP
T1 sequence (Q13131 whole entry): as the sequence (Q13131 whole entry) above
T1 sequence (Q9Y478 whole entry): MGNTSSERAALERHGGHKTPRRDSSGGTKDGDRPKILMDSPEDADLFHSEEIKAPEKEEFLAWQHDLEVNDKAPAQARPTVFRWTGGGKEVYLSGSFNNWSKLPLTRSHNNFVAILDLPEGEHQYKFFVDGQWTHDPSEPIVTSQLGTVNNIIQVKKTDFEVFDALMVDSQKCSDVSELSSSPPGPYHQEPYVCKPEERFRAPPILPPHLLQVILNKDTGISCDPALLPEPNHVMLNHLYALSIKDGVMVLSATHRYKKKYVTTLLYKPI
T1 sequence (P54619 whole entry partner): as the sequence (P54619 whole entry partner) above

Turning to `COc1nc(N2CCC3(CCO3)CC2)ccc1-c1cc2c(C(=O)O)c[nH]c2cc1Cl` (racemic) [Example 31, racemic-6-chloro-5-(2-methoxy-6-(1-oxa-7-azaspiro [3.5]nonan-7-yl)pyridin-3-yl)-1H-indole-3-carboxylic acid], in experiment [1], the half-maximal effective concentration (EC50) lay within 50 to 100 nM.

Turning to `COc1nc(N2CC3(CCS3(=O)=O)C2)ccc1-c1cc2c(C(=O)O)c[nH]c2cc1Cl` [Example 16, 6-chloro-5-(6-(1,1-dioxido-1-thia-6-azaspiro[3.3]heptan-6-yl)-2-methoxypyridin-3-yl)-1H-indole-3-carboxylic acid], the concentration giving a half-maximal response (EC50) in experiment [1] is not above 50 nM.

With `COc1nc(N2C[C@H]3COC[C@@H]3C2)ccc1-c1cc2c(C(=O)O)c[nH]c2cc1Cl` [Example 34, 6-chloro-5-(2-methoxy-6-((3aS,6aS)-tetrahydro-1H-furo[3,4-c]pyrrol-5(3H)-yl)pyridin-3-yl)-1H-indole-3-carboxylic acid], the EC50 was not above 50 nM in experiment [1] and 250 to 10000 nM in experiment [2].

For `COc1nc(N2CC3(CCC(=O)N3)C2)ccc1-c1cc2c(C(=O)O)c[nH]c2cc1Cl` [Example 17, 6-chloro-5-(2-methoxy-6-(6-oxo-2,5-diazaspiro[3.4]octan-2-yl)pyridin-3-yl)-1H-indole-3-carboxylic acid], the EC50 in experiment [1] was 50 to 100 nM; in experiment [2], more than 10000 nM.

Regarding `COc1nc(N2C[C@H]3C[C@H]3C2)ccc1-c1cc2c(C(=O)O)c[nH]c2cc1Cl` [Example 14, 5-(6-(3-azabicyclo[3.1.0]hexan-3-yl)-2-methoxypyridin-3-yl)-6-chloro-1H-indole-3-carboxylic acid], in experiment [1], the EC50 fell in the range of 50 to 100 nM.

As for `COc1nc(N2CC3CCC(C2)O3)ccc1-c1cc2c(C(=O)O)c[nH]c2cc1Cl` (racemic) [Example 29, racemic-5-(6-(8-oxa-3-azabicyclo[3.2.1]octan-3-yl)-2-methoxypyridin-3-yl)-6-chloro-1H-indole-3-carboxylic acid], the EC50 in experiment [1] lay in the range of 100 to 250 nM.

For `COc1nc(N2C[C@H]3COC[C@H]3C2)ccc1-c1cc2c(C(=O)O)c[nH]c2cc1Cl` [Example 27, 6-chloro-5-(2-methoxy-6-((cis)-tetrahydro-1H-furo[3,4-c]pyrrol-5(3H)-yl)pyridin-3-yl)-1H-indole-3-carboxylic Acid], the EC50 in experiment [1] is 50 to 100 nM; in experiment [2] it was more than 10000 nM.

On to `COc1nc(N2CC3(CC(NC(=O)OC(C)(C)C)C3)C2)ccc1-c1cc2c(C(=O)O)c[nH]c2cc1Cl` [Example 7, 5-(6-(6-((tert-butoxycarbonyl)amino)-2-azaspiro[3.3]heptan-2-yl)-2-methoxypyridin-3-yl)-6-chloro-1H-indole-3-carboxylic acid], for which, in experiment [1], the EC50 is not above 50 nM.

Take `COc1nc(N2CC3CC2CO3)ccc1-c1cc2c(C(=O)O)c[nH]c2cc1Cl` (racemic) [Example 2, rac-5-(6-(2-oxa-5-azabicyclo[2.2.1]heptan-5-yl)-2-methoxypyridin-3-yl)-6-chloro-1H-indole-3-carboxylic acid]: the concentration giving a half-maximal response (EC50) in experiment [1] fell in the range of 100 to 250 nM.

As to `COc1nc(N2C[C@@H]3COC[C@H]3C2)ccc1-c1cc2c(C(=O)O)c[nH]c2cc1Cl` [Example 33, 6-chloro-5-(2-methoxy-6-((3aR, 6aR)-tetrahydro-1H-furo[3,4-c]pyrrol-5(3H)-yl)pyridin-3-yl)-1H-indole-3-carboxylic acid], the results for the concentration giving a half-maximal response (EC50) in experiment [1] and in experiment [2] were not above 50 nM and 250 to 10000 nM, respectively.

Take `COc1nc(N2CC3(CCC3)C2)ccc1-c1cc2c(C(=O)O)c[nH]c2cc1Cl` [Example 13, 6-chloro-5-(2-methoxy-6-(2-azaspiro[3.3]heptan-2-yl)pyridin-3-yl)-1H-indole-3-carboxylic acid]: the EC50 was not above 50 nM in experiment [1] and more than 10000 nM in experiment [2].

As for `COc1nc(N2CC3(CCNC3=O)C2)ccc1-c1cc2c(C(=O)O)c[nH]c2cc1Cl` [Example 18, 6-chloro-5-(2-methoxy-6-(5-oxo-2,6-diazaspiro[3.4]octan-2-yl)pyridin-3-yl)-1H-indole-3-carboxylic acid], the concentration for a half-maximal effect (EC50) was not above 50 nM in experiment [1] and more than 10000 nM in experiment [2].

`COc1nc(N2CC3(CCCO3)C2)ccc1-c1cc2c(C(=O)O)c[nH]c2cc1Cl` [Example 8, 6-chloro-5-(2-methoxy-6-(5-oxa-2-azaspiro[3.4]octan-2-yl)pyridin-3-yl)-1H-indole-3-carboxylic acid]: the 50% effective concentration (EC50) is not above 50 nM in experiment [1] and more than 10000 nM in experiment [2].

`COc1nc(N2CC3(CC(N)C3)C2)ccc1-c1cc2c(C(=O)O)c[nH]c2cc1Cl` [Example 10, 5-(6-(6-amino-2-azaspiro[3.3]heptan-2-yl)-2-methoxypyridin-3-yl)-6-chloro-1H-indole-3-carboxylic Acid]: the EC50 in experiment [1] is not above 50 nM; in experiment [2], more than 10000 nM.

With `COc1nc(N2CC3(CCOCC3)C2)ccc1-c1cc2c(C(=O)O)c[nH]c2cc1Cl` [Example 36, 6-chloro-5-(2-methoxy-6-(7-oxa-2-azaspiro[3.5]nonan-2-yl)pyridin-3-yl)-1H-indole-3-carboxylic acid], the EC50 in experiment [1] fell in the range of 100 to 250 nM.

For `COc1nc(N2CC3CCC2CO3)ccc1-c1cc2c(C(=O)O)c[nH]c2cc1Cl` (racemic) [Example 30, racemic-5-(6-(2-oxa-5-azabicyclo[2.2.2]octan-5-yl)-2-methoxypyridin-3-yl)-6-chloro-1H-indole-3-carboxylic acid], in experiment [1], the EC50 lay in the range of 100 to 250 nM.

`COc1nc(N2CC3(CC(O)C3)C2)ccc1-c1cc2c(C(=O)O)c[nH]c2cc1Cl` [Example 4, 6-chloro-5-(6-(6-hydroxy-2-azaspiro[3.3]heptan-2-yl)-2-methoxypyridin-3-yl)-1H-indole-3-carboxylic acid]: the EC50 was not above 50 nM in experiment [1] and more than 10000 nM in experiment [2].

Take `COc1nc(N2CC3(CN(C(=O)OC(C)(C)C)C3)C2)ccc1-c1cc2c(C(=O)O)c[nH]c2cc1Cl` [Example 6, 5-(6-(6-(tert-butoxycarbonyl)-2,6-diazaspiro[3.3]heptan-2-yl)-2-methoxypyridin-3-yl)-6-chloro-1H-indole-3-carboxylic acid]: the 50% effective concentration (EC50) in experiment [1] is 50 to 100 nM; in experiment [2] it was more than 10000 nM.

As to `COc1nc(N2CC3(COC3)C2)ccc1-c1c(F)cc2[nH]cc(C(=O)O)c2c1F` [Example 41, 4,6-difluoro-5-(2-methoxy-6-(2-oxa-6-azaspiro[3.3]heptan-6-yl)pyridin-3-yl)-1H-indole-3-carboxylic acid], the EC50 is not above 50 nM in experiment [1] and more than 10000 nM in experiment [2].

For the compound `COc1nc(N2CC3(CNC3)C2)ccc1-c1cc2c(C(=O)O)c[nH]c2cc1Cl` [Example 11, 6-chloro-5-(2-methoxy-6-(2,6-diazaspiro[3.3]heptan-2-yl)pyridin-3-yl)-1H-indole-3-carboxylic acid], the EC50 in experiment [1] is 50 to 100 nM.

As for `COc1nc(N2CCC3(CCOCC3)C2)ccc1-c1cc2c(C(=O)O)c[nH]c2cc1Cl` [Example 35, 6-chloro-5-(2-methoxy-6-[8-oxa-2-azaspiro[4.5]decan-2-yl]pyridin-3-yl)-1H-indole-3-carboxylic acid], the EC50 in experiment [1] was 100 to 250 nM.

Regarding `COc1nc(N2CC3(COC3)C2)ccc1-c1cc2c(C(=O)O)c[nH]c2cc1F` [Example 40, 6-fluoro-5-(2-methoxy-6-[2-oxa-6-azaspiro[3.3]hentan-6-yl]pyridin-3-yl)-1H-indole-3-carboxylic Acid], the EC50 in experiment [1] lay in the range of 100 to 250 nM.

Take `COc1nc(N2CCC3(CCOC3)C2)ccc1-c1cc2c(C(=O)O)c[nH]c2cc1Cl` (racemic) [Example 37, racemic-6-chloro-5-(2-methoxy-6-(2-oxa-7-azaspiro [4.4]nonan-7-yl)pyridin-3-yl)-1H-indole-3-carboxylic acid]: the EC50 in experiment [1] lay in the range of 100 to 250 nM.

As for `COc1nc(N2CC3COC(C3)C2)ccc1-c1cc2c(C(=O)O)c[nH]c2cc1Cl` (racemic) [Example 20, racemic-5-(6-(6-oxa-3-azabicyclo[3.2.1]octan-3-yl)-2-methoxypyridin-3-yl)-6-chloro-1H-indole-3-carboxylic acid], the EC50 in experiment [1] is 50 to 100 nM.

In the case of `COc1nc(N2C[C@@H]3COC[C@H]3C2)ccc1-c1cc2c(C(=O)O)c[nH]c2cc1Cl` (racemic) [Example 32, racemic-6-chloro-5-(2-methoxy-6-((trans)tetrahydro-1H-furo[3,4-c]pyrrol-5(3H)-yl)pyridin-3-yl)-1H-indole-3-carboxylic acid], the EC50 in experiment [1] is not above 50 nM.

`COc1nc(N2CC3CC(C2)O3)ccc1-c1cc2c(C(=O)O)c[nH]c2cc1Cl` [Example 39, 5-(6-(6-oxa-3-azabicyclo[3.1.1]heptan-3-yl)-2-methoxypyridin-3-yl)-6-chloro-1H-indole-3-carboxylic acid]: the EC50 in experiment [1] was not above 50 nM.

Broadly, the EC50 is the concentration that produces a half-maximal response.
